These results are taken from paper PMC4279406, “Simultaneous targeting of PI3Kδ and a PI3Kδ-dependent MEK1/2-Erk1/2 pathway for therapy in pediatric B-cell acute lymphoblastic leukemia” (Oncotarget, 2014).

The subject of test [1] is PI3Kα (IGF-1-stimulated MEF cells). Kind of test: IGF-1-induced Akt phosphorylation in MEF cells. The format is cell-based, murine. To be noted: up to 0.5 μM; IGF-1 100 ng/ml; 1 h pre-incubation. As for the experimental part:
In fibroblasts, signals from the insulin-like growth factor 1 (IGF-1) receptor are mediated by PI3Kα, while lysophosphatidic acid (LPA) stimulates G-protein coupled receptor (GPCR) signals via PI3Kβ[26]. After being pre-incubated with X-370, murine embryonic fibroblasts cultured in serum-free medium were stimulated with IGF-1 or LPA. […] Either PI3Kδ or PI3Kγ can be activated in THP-1 monocytes dependent on the stimulating ligand, among which macrophage colony stimulating factor (M-CSF/CSF-1) activates RTK-coupled PI3Kδ, while monocyte chemoattractant protein-1 (MCP-1) activates PI3Kγ [24]. Accordingly, THP-1 cells cultured in serum-free medium were stimulated with MCP-1 or M-CSF in the presence of X-370 and phosphorylated Akt was measured.
Cell lysates were probed with indicated antibodies. The IC50 values were calculated based on relative band intensity measured with ImageQuant™ TL (GE Healthcare Life Sciences, Piscataway, NJ) (B). Data shown are mean values from three independent experiments. (C, D, E, F) X-370 blocked stimuli-triggered PI3Kδ activation. MEF cells and THP-1 were starved in serum-free medium for 12 h or 4 h respectively and X-370 were added for an additional 1 h treatment following stimulation of IGF-1 at 100 ng/ml for MEF cells (C), LPA at 10 μM for MEF cells (D), MCP-1 at 100ng/ml for THP-1 (E) and M-CSF at 50 ng/ml for THP-1 (F). […]

The next test concerns Raji cells. Kind of test: Signaling by Western blot. The format is cell-based, human. To be noted: Raji. As for the experimental part: (§1) Raji and SU-DHL-6 cells were treated with X-370 for 1 h (left panel) or treated with 0.5 μM X-370 for indicated times (middle panel). Right panel, Raji cells were incubated in fresh medium following treatment with 0.5 μM X-370 for 1 h. Indicated proteins were detected. (B) Raji-R (the rituximab-resistant derivatives of Raji cells) cells were resistant to X-370. The activity of X-370 on the proliferation of Raji parent and Raji-R cells was determined by CCK-8 assay as described in the methods section. (C) X-370 blocked phosphorylation of Akt but not Erk1/2 in Raji-R cells. Raji-R cells were treated with X-370 for 1h and indicated proteins were detected. Data shown are representative from three independent experiments.
(§2) Figure 5 Inhibition of Erk1/2 phosphorylation by X-370 contributed to its antiproliferative activity (A-C) X-370 inhibited Erk1/2 phosphorylation via PI3K-PDK1-MEK1/2 cascade but not the PI3K-Gab1 positive feedback loop. (A) Raji and SU-DHL-6 cells were exposed to 1 μM X370 for 3 h and protein fraction from cellular membrane was separated using Native Membrane Protein Extraction Kit and probed. WCL: whole cell lysate. (B) Inhibition of PDK1 or MEK1/2 abrogated Erk1/2 phosphorylation. Cells were treated with pharmacological inhibitors of Raf (AZ 628, PLX4032), MEK1/2 (AZD6244), p90RSK (BI-D1870), PI3Kδ (X-370), PDK1 (BX-912), Akt (MK-2206), mTOR (AZD8055) or mTORC1 (Rapamycin) respectively and indicated proteins were detected. (C) X-370 disrupted the association between PDK1 and MEK1/2. Raji cells were treated with 1 μM X370 for 1 h and cell lysates were immunoprecipitated with anti-PDK1 antibody and indicated proteins were detected. WCL: whole cell lysate. (D-F) Inhibition of Erk1/2 phosphorylation was required for the anti-proliferative activity of X-370. (D) Raji cells ectopically expressing a constitutively activated phospho-mimic MEK1 mutant (MEK1 […] or MEK DD) were incubated with X-370 or AZD6244 for 1 h and then subjected to Western blot. (E) Raji and Raji MEK DD cells were treated with X-370 for 72 h and cell proliferation was detected by CCK-8 assay. (F) Raji MEK DD cells were treated with X-370 and AZD6244 and cell proliferation was detected by CCK-8 assay. Data were show as mean ± SD of three independent experiments. *: p < 0.05 determined by t-tests at each data point. […]
(§3) Cells were treated as indicated conditions and then subjected to lysate to perform standard Western blot as described previously1. Briefly, whole-cell lysates and SDS-loading buffer diluted cell fractions were analyzed on SDS-PAGE gels. Transfer to nitrocellulose membranes, nonfat milk blocking, probing with indicated primary antibodies and the corresponding HRP-conjugated second antibodies.
(§4) Chemiluminescence were performed and captured using ImageQuant LAS 4000 (GE healthcare Life Sciences, Piscataway, NJ, USA) and band intensity was measure both with ImageQuant™ TL (GE Healthcare Life Sciences) 2. […]
(§5) (also on this page, place not known: PI3Kδ -dependent MEK1/2 - B -cell previously 1. whole -cell SDS -loading SDS -PAGE HRP -conjugated (G E A B Val828 Trp760 Thr750 Met752 Tyr813 affinity pocket specificity pocket hinge Glu826 CAL-101 X-370) […]
(§6) (1 picture or pasted object on this page, not shown here)
Background: A western blot detects proteins with antibodies after separation by electrophoresis.

For a further test, the system named is SU-DHL-6 cells. In words: Signaling by Western blot. The class given is cell-based, human. As for the experimental part: as §1, §2, §3, §4, §5, §6

SMILES strings stand for the structures.

In the case of `O=C(N1CCCC1)N1CCC(n2cnc3c(-n4c(C(F)F)nc5ccccc54)nc(N4CCOCC4)nc32)CC1` [X-370], the “IGF-1-induced Akt phosphorylation” value in test [1] is “partially inhibited”. Moreover, the “phosphorylation of Erk1/2 at T202/Y204” value with Raji cells and in the test with SU-DHL-6 cells (SU-DHL-6) was “decreased in lockstep with inactivation of Akt” in each case. For the same compound, the “phosphorylation of MEK1/2 at Ser217/221” value in the test with Raji cells (1 μM, 1 h) is given as “inhibited”. Besides, the “phosphorylation of Akt at the membrane” value with Raji cells (1 μM, 3 h, membrane fraction) is “abolished”; in the test on SU-DHL-6 cells (SU-DHL-6, 1 μM, 3 h, membrane fraction), “abolished”. Besides, the “concentration as low as which Akt phosphorylation was significantly reduced” value was found to be 5 nM with Raji cells (1 h) and 5 nM in the test with SU-DHL-6 cells (SU-DHL-6, 1 h). In addition, the “reversibility of action on PI3K and Erk1/2 after compound removal” value in the test on Raji cells (0.5 μM 1 h then drug-free medium, restoration after 15 minutes to 1 h) was “rapidly reversible”; in the test on SU-DHL-6 cells (SU-DHL-6, 0.5 μM 1 h then drug-free medium, restoration after 15 minutes to 1 h), “rapidly reversible”.
